Laboratory results published in US10064865B2, “Composition comprising phosphodiesterase type 5 inhibitor for inhibiting apoptosis of nerve cells” (ARIBIO INC., priority 2012, dated 2018).
Marks after values point to notes of the source that are not given here.

Tests used:
[1] = tested on: neuron apoptosis-operated rats, ipsilateral cerebral cortex; assay: Example 1 histopathology (H&E): cerebral atrophy and degenerative neurons; format: in vivo, Sprague-Dawley (SD) rats; settings: for Cerebral atrophic % / Numbers of neurons: Degenerative cells: 29 days after neuron apoptosis
Experimental: Total one hundred healthy male Sprague-Dawley (SD) rats (6-wk old upon receipt; Japan; Body weight ranged in 180-200 g upon receipt) were used after acclimatization for […]. Animals were allocated five per polycarbonate cage in a temperature (20-25° C.) and humidity (50-55%) controlled room. Light:dark cycle was 12 hr:12 hr, and standard rodent chow (Samyang, Korea) and water were supplied free to access. All animals were treated in accordance with the Guidelines for Care and Use of Laboratory Animals of Daegu Haany University based on the Guide for the Care and Use of Laboratory Animals by Institute of Laboratory Animal Resources, Commission on Life Science, National Research Council, USA on 1996, Washington D.C. Experimental groups were as follows:
The mirodenafil (mirodenafil 2HCl; SK Chemical Life Science Business, KR) was used in this experiment. […] Mirodenafil was stored at 4° C. in a refrigerator to protect from light and humidity until used. Three different dosages, 0.5, 1 and 2 mg/kg of mirodenafil were directly dissolved in saline and subcutaneously administered in a volume of 1 ml/kg on the dorsal back skins, once a day for 28 days from 24 hrs after stabilization periods from operation. In saline and neuron apoptosis control rats, equal volumes of saline as vehicle were administered, instead of mirodenafil, respectively.
The induction of neuron apoptosis was carried out by damaging the right hemisphere of the brain of animals. Specifically, animals were anesthetized with 2 or 3% isoflurane in the mixture of 70% N2O and 28.5% O2, and were maintained with 1 to 1.5% isoflurane in the mixture of 70% N2O and 28.5% O2. After that the temporalis muscle was bisected and reflected through an incision made midway between the eye and the eardrum canal. The proximal MCA was exposed through a subtemporal craniectomy by microdental drills without removing the zygomatic arch and without transecting the facial nerve. […] Mortality was less than 5%. For sham control, all procedures were performed in the same way, with the exception of the occlusion of the MCA.
At 29 days after neuron apoptosis rats were sacrificed. Brains were removed, washed in chilled phosphate buffered saline (PBS, pH7.4), and dissected into 6 coronal sections (2 mm thickness) ranging from 2 to 14 mm from the frontal brain pole on the rat brain stainless steel coronal matrix (Harvard, USA). Brain slices prepared by the stainless steel coronal matrix were directly fixed in 10% NBF, not stained with TTC. Then, embedded in paraffin, cross-sectioned, and stained with hematoxylin and eosin (H&E) for observing general histopathology of cerebral cortex. […] The histopathologist was blindes to group distribution when this analysis was made.
Histomorphometry: The atrophic % of ipsilateral cerebral cortex was calculated as following equation 1 as compared with intact contralateral hemisphere. In addition, the numbers of degenerative neurons were also measured in the restricted view fields of cerebral cortex, mm^2, respectively. Cerebral atrophy formation=(Contralateral cerebral cortex area−ipsilateral cerebral cortex area)/Contralateral cerebral cortex area×100(%) [EQUATION 1]
All data were expressed as mean±standard deviation (S.D.) of ten rats. Multiple comparison tests for different dose groups were conducted. Variance homogeneity was examined using the Levene test (Levene A, Clin Otalary, 1981; 6:145-51). […] Statistical analyses were conducted using SPSS (Release 14K, SPSS Inc., USA; Ludbrook, Clin Exp Pharmacol Physiol, 1997; 24:294-6). In addition, the percent changes between neuron apoptosis control and mirodenafil treated rats were calculated to help the understanding of the efficacy of test material as follow equation 3. Percentage changes as compared with neuron apoptosis control (%)=[((Data of mirodenafil treated groups−Data of neuron apoptosis control)/Data of neuron apoptosis control)×100] [EQUATION 3]

[2] = Example 2 body weight measurements; format: in vivo, Sprague-Dawley (SD) rats; settings: for Body weights at 29 days after surgery [B] / Weight gains [B − A]: 1 mg/kg s.c. once a day for 14 days; for Body weights at Before surgery / Body weights at surgery [A]: before treatment
Experimental: Changes of body weight were measured at 1 day before neuron apoptosis, the day of neuron apoptosis, 1, 3, 7, 14, 21, 28 and 29 days after neuron apoptosis. […] Body weight gains (g) during 29 days after neuron apoptosis=(Body weight at the 29 days after neuron apoptosis−body weight at the day of neuron apoptosis) [EQUATION 5]
All data were expressed as mean±standard deviation (S.D.) of ten rats. Multiple comparison tests for different dose groups were conducted. Variance homogeneity was examined using the Levene test (Levene A, Clin Otalary, 1981; 6:145-51). […] Statistical analyses were conducted using SPSS for Windows (Release 14K, SPSS Inc., USA; Ludbrook, Clin Exp Pharmacol Physiol, 1997; 24:294-6). In addition, the percent changes as compared with neuron apoptosis control and mirodenafil treated rats were calculated to help the understanding of the efficacy of test substances as follow Equation 6 and 7. Percentage Changes as Compared with Sham Control (%)=[((Data of neuron apoptosis control−Data of sham control rat)/Data of sham control rats)×100] [EQUATION 6] Percentage Changes as Compared with neuron apoptosis Control (%)=[((Data of test material treated rats−Data of neuron apoptosis control rats)/Data of neuron apoptosis control rats)×100] [EQUATION 7]

## CCCOc1ccc(S(=O)(=O)N2CCN(CCO)CC2)cc1-c1nc2c(CCC)cn(CC)c2c(=O)[nH]1 [Mirodenafil, mirodenafil]
[1]; 0.5 mg/kg
  ipsilateral cerebral atrophic %, change as compared with neuron apoptosis control: −8.70%
  numbers of degenerative neurons, change as compared with neuron apoptosis control: −44.47%
[1]; 0.5 mg/kg s.c. once a day
  Cerebral atrophic %: 51.38 ± 10.74^a %
  Numbers of neurons: Degenerative cells: 45.20 ± 8.97^ab cells/mm^2 of cerebral cortex
[1]; 1 mg/kg
  ipsilateral cerebral atrophic %, change as compared with neuron apoptosis control: −46.42%
  numbers of degenerative neurons, change as compared with neuron apoptosis control: −73.46%
[1]; 1 mg/kg s.c. once a day
  Cerebral atrophic %: 30.15 ± 10.28^ab %
  Numbers of neurons: Degenerative cells: 21.60 ± 9.43^ab cells/mm^2 of cerebral cortex
[1]; 2 mg/kg
  ipsilateral cerebral atrophic %, change as compared with neuron apoptosis control: −53.31%
  numbers of degenerative neurons, change as compared with neuron apoptosis control: −76.54%
[1]; 2 mg/kg s.c. once a day
  Cerebral atrophic %: 26.28 ± 9.12^ab %
  Numbers of neurons: Degenerative cells: 19.10 ± 2.08^ab cells/mm^2 of cerebral cortex
[2]; 1 mg/kg from 24 hrs after surgery
  body weight gains during 29 days, change as compared with neuron apoptosis control: 43.24%
[2]; 1 mg/kg from 72 hrs after surgery
  body weight gains during 29 days, change as compared with neuron apoptosis control: 33.78%
[2]; 1 mg/kg from 168 hrs after surgery
  body weight gains during 29 days, change as compared with neuron apoptosis control: 11.04%
[2]; start 24 hrs after operation
  Body weights at 29 days after surgery [B]: 357.13 ± 15.38^ab g
  Weight gains [B − A]: 79.50 ± 14.09^ab g
[2]; start 72 hrs after operation
  Body weights at 29 days after surgery [B]: 349.38 ± 10.28^ac g
  Weight gains [B − A]: 74.25 ± 14.95^ab g
[2]; start 168 hrs after operation
  Body weights at 29 days after surgery [B]: 338.63 ± 15.26^a g
  Weight gains [B − A]: 61.63 ± 6.78^a g
[2]; 1 mg/kg start 24 hrs group
  Body weights at Before surgery: 307.75 ± 15.84 g
  Body weights at surgery [A]: 277.63 ± 15.07 g
[2]; 1 mg/kg start 72 hrs group
  Body weights at Before surgery: 307.25 ± 11.36 g
  Body weights at surgery [A]: 275.13 ± 12.21 g
[2]; 1 mg/kg start 168 hrs group
  Body weights at Before surgery: 307.88 ± 10.53 g
  Body weights at surgery [A]: 277.00 ± 10.41 g
